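How tested: cells in 96-well plates exposed to compound for 48 hours at five concentrations. Abbreviation: GI50, concentration required for 50% inhibition of growth.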 Activity calls are given as the source filed them. Rule as the data show it: active = GI50 up to about 1.1 µM and inactive = higher.
What was measured:
Experiment in all cases: NCI anticancer screen, dose series, 48 h
[1] = test system: NCI-H226
[2] = test system: T47D
[3] = test system: HL-60
[4] = test system: NCI-H460
[5] = test system: RPMI-8226
[6] = test system: MCF7
[7] = test system: UACC-62
[8] = test system: BT-549
[9] = test system: SK-OV-3
[10] = test system: MDA-MB-435
[11] = test system: KM12
[12] = test system: HT-29
[13] = test system: NCI-H522
[14] = test system: 786-0
[15] = test system: OVCAR-3
[16] = test system: TK-10
[17] = test system: ACHN
[18] = test system: NCI-H23
[19] = test system: OVCAR-5
[20] = test system: SNB-19
[21] = test system: SF-268
[22] = test system: EKVX
[23] = test system: HCT-15
[24] = test system: SF-295
[25] = test system: A549
[26] = test system: SW-620
[27] = test system: SK-MEL-2
[28] = test system: HCT-116
[29] = test system: A498
[30] = test system: CCRF-CEM
[31] = test system: UACC-257
[32] = test system: M14
[33] = test system: UO-31
[34] = test system: HCC 2998
[35] = test system: DU-145
[36] = test system: MDA-N
[37] = test system: Hs-578T
[38] = test system: SF-539
[39] = test system: HOP-92
[40] = test system: RXF 393
[41] = test system: SK-MEL-5
[42] = test system: COLO 205
[43] = test system: SR
[44] = test system: PC-3
[45] = test system: HOP-62
[46] = test system: MOLT-4
[47] = test system: SN12C
[48] = test system: OVCAR-8
[49] = test system: CAKI-1
[50] = test system: U-251
[51] = test system: OVCAR-4
[52] = test system: NCI/ADR-RES
[53] = test system: SK-MEL-28
[54] = test system: LOX IMVI
[55] = test system: Malme-3M
[56] = test system: MDA-MB-231
[57] = test system: K562
[58] = test system: IGROV-1
[59] = test system: SNB-75

Nc1nc(Nc2ccccc2)sc1C(=O)c1cccs1
GI50 [1]: 16.8 µM (inactive)
GI50 [2]: 21.2 µM (inactive)
GI50 [3]: 3.57 µM (inactive)
GI50 [4]: 10.4 µM (inactive)
GI50 [5]: 12.8 µM (inactive)
GI50 [6]: 8.13 µM (inactive)
GI50 [7]: 15.7 µM (inactive)
GI50 [8]: 15.2 µM (inactive)
GI50 [9]: 29.4 µM (inactive)
GI50 [10]: 15 µM (inactive)
GI50 [11]: 4.19 µM (inactive)
GI50 [12]: 5.32 µM (inactive)
GI50 [13]: 11 µM (inactive)
GI50 [14]: 11.5 µM (inactive)
GI50 [15]: 3.94 µM (inactive)
GI50 [16]: 16.4 µM (inactive)
GI50 [17]: 16.8 µM (inactive)
GI50 [18]: 16.2 µM (inactive)
GI50 [19]: 11.7 µM (inactive)
GI50 [20]: 16.6 µM (inactive)
GI50 [21]: 18.2 µM (inactive)
GI50 [22]: 13.6 µM (inactive)
GI50 [23]: 10.8 µM
GI50 [24]: 21.8 µM (inactive)
GI50 [25]: 14.2 µM (inactive)
GI50 [26]: 11.6 µM (inactive)
GI50 [27]: 12.7 µM (inactive)
GI50 [28]: 4.06 µM (inactive)
GI50 [29]: 14.6 µM (inactive)
GI50 [30]: 2.81 µM (inactive)
GI50 [31]: 17.7 µM (inactive)
GI50 [32]: 21.1 µM (inactive)
GI50 [33]: 11.5 µM (inactive)
GI50 [34]: 17 µM (inactive)
GI50 [35]: 8.97 µM (inactive)
GI50 [36]: 17.1 µM (inactive)
GI50 [37]: 15.8 µM (inactive)
GI50 [38]: 10.7 µM (inactive)
GI50 [39]: 30.3 µM (inactive)
GI50 [40]: 5.93 µM (inactive)
GI50 [41]: 4.08 µM (inactive)
GI50 [42]: 7.06 µM (inactive)
GI50 [43]: 1.74 µM (inactive)
GI50 [44]: 15.9 µM (inactive)
GI50 [45]: 22.3 µM (inactive)
GI50 [46]: 6.75 µM (inactive)
GI50 [47]: 16 µM (inactive)
GI50 [48]: 21.1 µM (inactive)
GI50 [49]: 14.4 µM (inactive)
GI50 [50]: 15.3 µM (inactive)
GI50 [51]: 15.5 µM (inactive)
GI50 [52]: 21.2 µM (inactive)
GI50 [53]: 25.4 µM (inactive)
GI50 [54]: 11.2 µM (inactive)
GI50 [55]: 22.1 µM (inactive)
GI50 [56]: 28.7 µM (inactive)
GI50 [57]: 9.86 µM (inactive)
GI50 [58]: 11.7 µM (inactive)

CC(C)OC(=O)c1ccc(CCC2=CC(=O)C=CC2=O)cc1
GI50 [1]: 15.9 µM (inactive)
GI50 [2]: 2.17 µM (inactive)
GI50 [3]: 0.773 µM (active)
GI50 [4]: 21.8 µM (inactive)
GI50 [5]: 2.79 µM (inactive)
GI50 [6]: 15.5 µM (inactive)
GI50 [7]: 14.9 µM (inactive)
GI50 [8]: 5.25 µM (inactive)
GI50 [9]: 34.8 µM (inactive)
GI50 [10]: 17.4 µM (inactive)
GI50 [11]: 12.2 µM (inactive)
GI50 [12]: 18.1 µM (inactive)
GI50 [13]: 1.9 µM (inactive)
GI50 [14]: 4.22 µM (inactive)
GI50 [15]: 5.18 µM (inactive)
GI50 [16]: 9.73 µM (inactive)
GI50 [17]: 7.89 µM (inactive)
GI50 [18]: 13.2 µM (inactive)
GI50 [19]: 18 µM (inactive)
GI50 [20]: 21.6 µM (inactive)
GI50 [59]: 22.5 µM (inactive)
GI50 [21]: 13.7 µM (inactive)
GI50 [22]: 11.5 µM (inactive)
GI50 [23]: 8.81 µM
GI50 [24]: 29.4 µM (inactive)
GI50 [25]: 25.4 µM (inactive)
GI50 [26]: 4.69 µM (inactive)
GI50 [27]: 19.1 µM (inactive)
GI50 [28]: 11.8 µM (inactive)
GI50 [29]: 23 µM (inactive)
GI50 [30]: 0.697 µM (active)
GI50 [31]: 12.1 µM (inactive)
GI50 [32]: 15.2 µM (inactive)
GI50 [33]: 4.5 µM (inactive)
GI50 [34]: 16.8 µM (inactive)
GI50 [35]: 15.2 µM (inactive)
GI50 [36]: 10.4 µM (inactive)
GI50 [37]: 13 µM (inactive)
GI50 [38]: 5.45 µM (inactive)
GI50 [39]: 5.05 µM (inactive)
GI50 [40]: 11.8 µM (inactive)
GI50 [41]: 15 µM (inactive)
GI50 [42]: 8.85 µM (inactive)
GI50 [43]: 2.56 µM (inactive)
GI50 [44]: 12 µM (inactive)
GI50 [45]: 20.3 µM (inactive)
GI50 [46]: 2.1 µM (inactive)
GI50 [47]: 11.3 µM (inactive)
GI50 [48]: 7.21 µM (inactive)
GI50 [49]: 1.98 µM (inactive)
GI50 [50]: 15.6 µM (inactive)
GI50 [51]: 14.8 µM (inactive)
GI50 [52]: 7.78 µM (inactive)
GI50 [53]: 13.5 µM (inactive)
GI50 [54]: 4.1 µM (inactive)
GI50 [55]: 6.92 µM (inactive)
GI50 [56]: 8.93 µM (inactive)
GI50 [57]: 3.04 µM (inactive)
GI50 [58]: 13.9 µM (inactive)

— ChEMBL document CHEMBL1201862, “PubChem BioAssay data set” (2004)
